The results in this text go back to patent US10392347B2, “2,4-dihydroxy-nicotinamides as APJ agonists” (BRISTOL-MYERS SQUIBB COMPANY, priority 2015, dated 2019).

The structures appear in SMILES notation.

In one assay the target is T1, human APJ receptor (Homo sapiens, UniProt P35414).
T1 construct: expressed in transfected cells
T1 sequence (P35414 1-380): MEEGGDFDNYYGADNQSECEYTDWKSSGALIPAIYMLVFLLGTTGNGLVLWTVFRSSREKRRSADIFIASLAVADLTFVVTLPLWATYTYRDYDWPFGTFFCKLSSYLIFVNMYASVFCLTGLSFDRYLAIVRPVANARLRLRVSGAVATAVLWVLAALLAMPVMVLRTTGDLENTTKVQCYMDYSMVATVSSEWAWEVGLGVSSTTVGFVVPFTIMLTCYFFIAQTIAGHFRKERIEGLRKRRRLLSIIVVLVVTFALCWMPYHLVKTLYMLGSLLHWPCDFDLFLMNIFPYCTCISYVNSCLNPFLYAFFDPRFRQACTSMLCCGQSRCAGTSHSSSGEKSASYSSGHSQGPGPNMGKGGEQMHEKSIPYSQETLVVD
The assay is described as follows: Intracellular cAMP accumulation assay (APJ hcAMP, HTRF). The assay is classed as cell-based. The note with it: APJ cAMP EC50 (nM), Table 1; HEK293 cells stably expressing human APJ, forskolin-stimulated cAMP. In a few lines:
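Inhibition of forskolin (2 μM)-stimulated cAMP, with […], was measured after 30 min compound exposure at room temperature in stably transfected HEK293 cells. HTRF ratios were converted to cAMP via standard curve, and EC50 values came from variable-slope sigmoidal concentration-response fitting.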
A general note: Cyclic AMP is a second messenger, typically raised through Gs and lowered through Gi signalling.
Broadly, the EC50 is the midpoint of the concentration-response curve. Molecule `CCCCc1[nH]c(=O)c(C(=O)N2CC[C@@H](c3ccccc3)C2)c(O)c1-c1c(OC)cccc1OC` [Example 29, 6-butyl-5-(2,6-dimethoxyphenyl)-3-[(3S)-3-phenylpyrrolidine-1-carbonyl]pyridine-2,4-diol] showed an EC50 of 0.01 to 10 nM.

Still in this assay, the particulars now being: Table 1; HEK293 cells stably expressing human APJ, forskolin-stimulated cAMP; read-out: APJ cAMP EC50.
Take `CCCCc1nc(O)c(C(=O)N2CCN(c3ccccc3)CC2)c(O)c1-c1c(OC)cccc1OC` [Example 30, 6-butyl-5-(2,6-dimethoxyphenyl)-3-(4-phenylpiperazine-1-carbonyl)pyridine-2,4-diol]: the EC50 is 10 to 100 nM.

On to `CCCCc1nc(O)c(C(=O)N2CCN(c3ccc(Cl)cc3)CC2)c(O)c1-c1c(OC)cccc1OC` [Example 68, 6-butyl-3-[4-(4-chlorophenyl)piperazine-1-carbonyl]-5-(2,6-dimethoxyphenyl)pyridine-2,4-diol], for which the EC50 was 10 to 100 nM.

For the molecule `CCCCc1nc(O)c(C(=O)N2CCN(c3ccncc3)CC2)c(O)c1-c1c(OC)cccc1OC` [Example 22, 6-butyl-5-(2,6-dimethoxyphenyl)-3-[4-(pyridin-4-yl)piperazine-1-carbonyl]pyridine-2,4-diol], the EC50 was in the range of 100 to 300 nM.

Take `CCCCc1nc(O)c(C(=O)N2CCN(C(=O)c3ccccc3)CC2)c(O)c1-c1c(OC)cccc1OC` [Example 41, 3-(4-benzoylpiperazine-1-carbonyl)-6-butyl-5-(2,6-dimethoxyphenyl)pyridine-2,4-diol]: the EC50 was in the range of 0.01 to 10 nM.

On to `CCCCc1nc(O)c(C(=O)N2CCC(c3ccccc3OC)CC2)c(O)c1-c1c(OC)cccc1OC` [Example 19, 6-butyl-5-(2,6-dimethoxyphenyl)-3-[4-(2-methoxyphenyl)piperidine-1-carbonyl]pyridine-2,4-diol], for which the EC50 was in the range of 10 to 100 nM.

On to `CCCCc1nc(O)c(C(=O)N2CCC(c3ccccc3Cl)CC2)c(O)c1-c1c(OC)cccc1OC` [Example 23, 6-butyl-3-[4-(2-chlorophenyl)piperidine-1-carbonyl]-5-(2,6-dimethoxyphenyl)pyridine-2,4-diol], for which the half-maximal effective concentration (EC50) lay within 10 to 100 nM.

Regarding `CCCCc1nc(O)c(C(=O)N2CCN(C(c3ccccc3)c3ccccc3)CC2)c(O)c1-c1c(OC)cccc1OC` [Example 16, 6-butyl-5-(2,6-dimethoxyphenyl)-3-[4-(diphenylmethyl)piperazine-1-carbonyl]pyridine-2,4-diol], the EC50 lay in the range of 0.01 to 10 nM.

In the case of `CCCCc1nc(O)c(C(=O)N2CCC(c3nc(CCC)no3)CC2)c(O)c1-c1c(OC)cccc1OC` [Example 5, 6-butyl-5-(2,6-dimethoxyphenyl)-3-[4-(3-propyl-1,2,4-oxadiazol-5-yl)piperidine-1-carbonyl]pyridine-2,4-diol], the EC50 was 10 to 100 nM.

For the molecule `CCCCc1nc(O)c(C(=O)N2CCN(c3cccnn3)CC2)c(O)c1-c1c(OC)cccc1OC` [Example 21, 6-butyl-5-(2,6-dimethoxyphenyl)-3-[4-(pyridazin-3-yl)piperazine-1-carbonyl]pyridine-2,4-diol], the EC50 fell in the range of 100 to 300 nM.

On to `CCCCc1nc(O)c(C(=O)N2CCC(c3cc(-c4ccco4)n[nH]3)CC2)c(O)c1-c1c(OC)cccc1OC` [Example 20, 6-butyl-5-(2,6-dimethoxyphenyl)-3-{4-[3-(furan-2-yl)-1H-pyrazol-5-yl]piperidine-1-carbonyl}pyridine-2,4-diol], for which the EC50 lay within 10 to 100 nM.

As for `CCOCc1nc(O)c(C(=O)N2CC[C@@H](c3ccccc3)C2)c(O)c1-c1c(OC)cccc1OC` [Example 25, 5-(2,6-dimethoxyphenyl)-6-(ethoxymethyl)-3-[(3S)-3-phenylpyrrolidine-1-carbonyl]pyridine-2,4-diol], the EC50 was 10 to 100 nM.

Staying with this assay, now noted: Table 2; HEK293 cells stably expressing human APJ, forskolin-stimulated cAMP; read-out: APJ cAMP EC50.
On to `CCCCc1nc(O)c(C(=O)N2CCCC2c2ccccn2)c(O)c1-c1c(OC)cccc1OC` (racemic) [Example 8, 6-butyl-5-(2,6-dimethoxyphenyl)-3-[2-(pyridin-2-yl)pyrrolidine-1-carbonyl]pyridine-2,4-diol], for which the EC50 lay within 0.01 to 10 nM.

Still in this assay, the particulars now being: Table 3; HEK293 cells stably expressing human APJ, forskolin-stimulated cAMP; read-out: APJ cAMP EC50.
With `CCOCc1nc(O)c(C(=O)N2CCC(c3ccc(Cl)cn3)C2)c(O)c1-c1c(OC)cccc1OC` (centres unmarked) [Example 77, 3-[3-(5-chloropyridin-2-yl)pyrrolidine-1-carbonyl]-5-(2,6-dimethoxyphenyl)-6-(ethoxymethyl)pyridine-2,4-diol], the 50% effective concentration (EC50) lay within 0.01 to 10 nM.

As to `CCOCc1nc(O)c(C(=O)N2CCC(c3ccc(Cl)cn3)C2)c(O)c1-c1c(OC)cccc1OC` (centres unmarked) [Example 76, 3-[3-(5-chloropyridin-2-yl)pyrrolidine-1-carbonyl]-5-(2,6-dimethoxyphenyl)-6-(ethoxymethyl)pyridine-2,4-diol], the EC50 was in the range of 0.01 to 10 nM.

On to `CCOCc1nc(O)c(C(=O)N2CCC(c3ncc(F)cc3F)C2)c(O)c1-c1c(OC)cccc1OC` (centres unmarked) [Example 85, 3-[3-(3,5-difluoropyridin-2-yl)pyrrolidine-1-carbonyl]-5-(2,6-dimethoxyphenyl)-6-(ethoxymethyl)pyridine-2,4-diol], for which the concentration for a half-maximal effect (EC50) lay within 0.01 to 10 nM.

Still in this assay, the particulars now being: Table 4; HEK293 cells stably expressing human APJ, forskolin-stimulated cAMP; read-out: Human cAMP EC50.
On to `CCOCc1nc(O)c(C(=O)N2CCN(Cc3cccc(F)c3F)CC2)c(O)c1-c1c(OC)cccc1OC` [Example 114, 3-{4-[(2,3-difluorophenyl)methyl]piperazine-1-carbonyl}-5-(2,6-dimethoxyphenyl)-6-(ethoxymethyl)pyridine-2,4-diol], for which the EC50 was in the range of 0.01 to 10 nM.

As for `CCOCc1nc(O)c(C(=O)N2CCN(Cc3cccc(F)c3)CC2)c(O)c1-c1ccccc1OC` [Example 91, 6-(ethoxymethyl)-3-{4-[(3-fluorophenyl)methyl]piperazine-1-carbonyl}-5-(2-methoxyphenyl)pyridine-2,4-diol], the EC50 was 10 to 100 nM.

For the molecule `CCCCc1nc(O)c(C(=O)N(CCC)CCc2ccccc2F)c(O)c1-c1c(OC)cccc1OC` [Example 117, 6-butyl-5-(2,6-dimethoxyphenyl)-N-[2-(2-fluorophenyl)ethyl]-2,4-dihydroxy-N-propylpyridine-3-carboxamide], the EC50 lay within 100 to 300 nM.

Staying with this assay, now noted: Table 6; HEK293 cells stably expressing human APJ, forskolin-stimulated cAMP; read-out: Human cAMP EC50.
Regarding `CCOCc1nc(O)c(C(=O)N2CCC(c3ccc(F)cc3F)C2)c(O)c1-c1c(OC)cccc1OC` (centres unmarked) [Example 131], the EC50 was 0.01 to 10 nM.
